Entries after “also recorded” stand apart in the source; their conditions may differ.
Tests used:
DNA Pol III (χ) [1] = experiment: ITC of SSB-Ct peptides binding to the χ subunit; design: species or system Escherichia coli; settings: pH 8.0, 50 mM NaCl, 25°C; N fixed to 1
Procedure: (§1) The concentrations were determined thereafter.

DNA Pol III (χ) [2] = settings: previous study; cited from earlier work
Source text: When DNA is bound to the DBD, the acidic tip no longer interacts with the DBD and thus is more available to interact with a SIP. This is supported by the observation that ΔH = −6.0 ± 0.1 kcal/mol for RecO binding to the SSBΔ120-166–(dT)70 complex, which should not contain contributions from the acidic tip-DBD intramolecular interactions.

E. coli RecO = experiment: ITC of SSB-Ct peptides binding to RecO; design: species or system Escherichia coli; settings: 25°C
Procedure: as §1

PriA [3] = settings: pH 8.0, 50 mM NaCl, 25°C; N fixed to 1
Procedure: Isothermal titration calorimetry (ITC) experiments were performed using a VP-ITC titration microcalorimeter (Malvern Panalytical, Malvern, UK) ([68]). All proteins and oligonucleotides were dialyzed extensively against the indicated buffer and cleared by centrifugation at 14 000 rpm for 15 min at 4°C. The concentrations were determined thereafter. For experiments with the SSB-Ct peptides and SIPs, 40–50 μM peptides were titrated into 1–2 μM SIPs in Buffer BTP at pH 8.0 and 50 mM NaCl. For experiments with the full-length SSB and its deletion mutants and SIPs, SSB tetramer (8–10 μM) was titrated into SIP (1 μM) in Buffer BTP at pH 7.0 and 200 mM NaCl. The heats of dilution were obtained by blank titrations in which the titrant species is titrated into the buffer, and corrections for heats of dilution were applied.
The raw data were analyzed to obtain titration curves by integrating each peak from the time of titrant addition until equilibration back to the baseline using ‘MicroCal Data Analysis’ software provided by the manufacturer. […] The concentration of the free ligand (X) was obtained by solving Equation (2).(2)
In Equations (1) and (2), and are the total concentrations of the ligand and macromolecule, respectively, in the calorimetric cell after ith injection and X is the free ligand concentration. Nonlinear least-squares fitting of the data was performed using the same software. […]

PriC = experiment: ITC of SSB-Ct peptides binding to PriC; design: species or system Escherichia coli; settings: 25°C
Procedure: as §1

PriA [4] = settings: previous study; cited from earlier work
Procedure: All binding reactions were performed under identical solution conditions, although additional experiments were performed at a lower [NaCl] for PriC as indicated, ...

(dT)70 = experiment: ITC control of P65 peptide and (dT)70; type: binding; settings: BTP pH 7.0, 20 mM NaCl, 25°C
Procedure: The concentrations were determined thereafter. […]
Figure S7. Results from various control ITC titrations of (a) SSB-A and RecO at 15°C and (b) 25°C, (c) SSB-A and c, (d) P65 and (dT)70, (e) (dT)70 and SSB-A, and (f) (dT)70 and wtSSB. (a) SSB-A (10 µM), a homo-tetrameric SSB variant containing an additional six amino acids, TGASGT, at the C-terminus of each subunit, was titrated into […]
(5.9 µM) was titrated into c (1 µM) in buffer T (10 mM Tris-HCl, pH 8.1, 200 mM NaCl, […]
0.1 mM EDTA) at 25° C. […] (d) dT70 (60 µM) was […]
titrated into P65 (2 µM) in buffer BTP (pH 7.0, 20 mM NaCl) at 25° C. P65, the full-length […]
(dT)70. (e) (dT)70 (15 µM) was titrated into SSB-A (1 µM) in buffer T at 25° C. SSB-A (also on this page, place not known: 15°C 25°C. 25°C. 25°C. 25°C. 2.00 kcal mol-1 of injectant kcal mol-1 of injectant [SSB-A]tot/[RecO]tot kcal mol-1 of injectant [SSB-A]tot/[c]tot (f)(d))

In the case of “P15: SSB-Ct peptide, C-terminal 15 amino acids of E. coli SSB, contains acidic tip, no PXXP motifs (PSNEPPMDFDDDIPF)”, the “K (equilibrium binding constant)” value (DNA Pol III (χ) [1]) is listed as “(3.0 ± 0.1) × 10^5 M^−1”, the “binding to χ” value (DNA Pol III (χ) [2]) is listed as “same affinity as P9” and the “K” value (E. coli RecO; BTP pH 7, 200 mM NaCl) is listed as “(1.1 ± 0.1) × 10^6 M^−1”. The “K (equilibrium binding constant)” value (E. coli RecO; pH 8.0, 50 mM NaCl, N fixed to 1) was “(1.2 ± 0.3) × 10^7 M^−1”, the “K (equilibrium binding constant)” value (PriA [3]) was “(2.6 ± 0.1) × 10^5 M^−1” and the “K (equilibrium binding constant)” value (PriC; pH 8.0, 10 mM NaCl, N fixed to 1) was “(1.6 ± 0.1) × 10^6 M^−1”. For the same molecule, the “binding detected by ITC” value (PriC; pH 8.0, 50 mM NaCl) was “undetectable; also recorded: showed no binding” and the “binding to PriA” value (PriA [4]) was “same affinity as P9”.

B1: P65: SSB-Ct peptide, C-terminal 65 amino acids of SSB; acidic tip and the full IDL (peptide)
peptide: GGRQGGGAPAGGNIGGGQPQGGWGQPQQPQGGNQFSGGAQSRPQQSAPAAPSNEPPMDFDDDIPF
With B1 the “binding to (dT)70 by ITC” value ((dT)70) was “does not interact; also recorded: no detectable interaction”.

Reference: PMC7145534, “Are the intrinsically disordered linkers involved in SSB binding to accessory proteins?” (Nucleic Acids Research, 2019)
